Experimental data from ChEMBL document CHEMBL1127782, “Non-peptidic inhibitors of human leukocyte elastase. 1. The design and synthesis of pyridone-containing inhibitors” (J Med Chem, 1994).

target: T1, Neutrophil elastase (Homo sapiens, UniProt P08246); test: The compound was tested in vitro for ability to inhibit human leukocyte elastase activity
T1 sequence (P08246 whole entry): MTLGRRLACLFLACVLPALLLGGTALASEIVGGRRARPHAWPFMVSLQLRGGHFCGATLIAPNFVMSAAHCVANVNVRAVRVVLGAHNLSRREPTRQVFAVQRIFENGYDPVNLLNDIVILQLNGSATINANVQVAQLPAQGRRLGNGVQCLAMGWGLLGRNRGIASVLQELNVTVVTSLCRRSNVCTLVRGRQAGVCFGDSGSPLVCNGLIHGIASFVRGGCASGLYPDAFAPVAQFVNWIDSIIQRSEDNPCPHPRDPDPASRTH

Structure (SMILES) | Ki
CC(C)C(NC(=O)Cn1cc(Cc2ccccc2)cc(NC(=O)C(N)=O)c1=O)C(=O)C(F)(F)F (configuration not stated) | 51 nM
CC(C)C(NC(=O)Cn1cccc(NC(=O)C(=O)O)c1=O)C(=O)C(F)(F)F (configuration not stated) | 350 nM
CC(C)C(NC(=O)Cn1cccc([N+](=O)[O-])c1=O)C(=O)C(F)(F)F (configuration not stated) | 15000 nM
COC(=O)c1ccc(Cc2cc(NC(=O)OCc3ccccc3)c(=O)n(CC(=O)NC(C(=O)C(F)(F)F)C(C)C)c2)cc1 (configuration not stated) | 88 nM
COC(=O)C(=O)Nc1cccn(CC(=O)NC(C(=O)C(F)(F)F)C(C)C)c1=O (configuration not stated) | 500 nM
CC(C)C(NC(=O)Cn1cccc(NC(=O)C(N)=O)c1=O)C(=O)C(F)(F)F (configuration not stated) | 320 nM
COC(=O)C(=O)Nc1cc(Cc2ccccc2)cn(CC(=O)NC(C(=O)C(F)(F)F)C(C)C)c1=O (configuration not stated) | 70 nM
CCOC(=O)CC(=O)Nc1cccn(CC(=O)NC(C(=O)C(F)(F)F)C(C)C)c1=O (configuration not stated) | 3400 nM
CC(C)C(NC(=O)Cn1cc(Cc2ccccc2)cc(NC(=O)C(=O)O)c1=O)C(=O)C(F)(F)F (configuration not stated) | 48 nM
CC(C)C(NC(=O)Cn1cccc(NC(=O)OCc2ccccc2)c1=O)C(=O)C(F)(F)F (configuration not stated) | 280 nM
CC(C)C(NC(=O)Cn1cccc(N)c1=O)C(=O)C(F)(F)F (configuration not stated) | 2700 nM
CC(C)C(NC(=O)Cn1cc(Cc2ccc(OC(=O)C(C)(C)C)cc2)cc(NC(=O)OCc2ccccc2)c1=O)C(=O)C(F)(F)F (configuration not stated) | 32 nM
CC(C)C(NC(=O)Cn1cccc(NC(=O)CC(=O)O)c1=O)C(=O)C(F)(F)F (configuration not stated) | 2600 nM

Results, then the molecule that gave them:

Ki | Structure (SMILES)
47 nM | CC(C)C(NC(=O)Cn1cc(Cc2ccc(C(F)(F)F)cc2)cc(NC(=O)OCc2ccccc2)c1=O)C(=O)C(F)(F)F (configuration not stated)
34 nM | CC(C)C(NC(=O)Cn1cc(Cc2ccc(O)cc2)cc(NC(=O)OCc2ccccc2)c1=O)C(=O)C(F)(F)F (configuration not stated)
71 nM | CC(C)C(NC(=O)Cn1cc(Cc2ccc(F)cc2)cc(NC(=O)OCc2ccccc2)c1=O)C(=O)C(F)(F)F (configuration not stated)
12 nM | CC(C)C(NC(=O)Cn1cc(Cc2cccc(OC(=O)C(C)(C)C)c2)cc(NC(=O)OCc2ccccc2)c1=O)C(=O)C(F)(F)F (configuration not stated)
87 nM | CC(C)C(NC(=O)Cn1cc(Cc2cccc(F)c2)cc(NC(=O)OCc2ccccc2)c1=O)C(=O)C(F)(F)F (configuration not stated)
89 nM | CC(C)C(NC(=O)Cn1cc(Cc2cccc(O)c2)cc(NC(=O)OCc2ccccc2)c1=O)C(=O)C(F)(F)F (configuration not stated)
42 nM | CC(=O)Oc1cccc(Cc2cc(NC(=O)OCc3ccccc3)c(=O)n(CC(=O)NC(C(=O)C(F)(F)F)C(C)C)c2)c1 (configuration not stated)
40 nM | CC(C)C(NC(=O)Cn1cc(Cc2ccccc2)cc(NC(=O)OCc2ccccc2)c1=O)C(=O)C(F)(F)F (configuration not stated)
36 nM | CC(C)C(NC(=O)Cn1cc(Cc2cccc(NC(=O)C(F)(F)F)c2)cc(NC(=O)OCc2ccccc2)c1=O)C(=O)C(F)(F)F (configuration not stated)
